According to ChEMBL document CHEMBL5252655, “Discovery of Potent Deuterated Compounds as Potential KRASG12D Inhibitors in Cancer Therapy” (ACS Med Chem Lett, 2023):

Biological target: SOS1-KRAS (Homo sapiens, UniProt P01116, G12D)
Assay: Inhibition of SOS1/KRAS G12D mutant (unknown origin) protein-protein interaction incubated for 3 hrs by HTRF analysis

Chain of SOS1-KRAS (P01116 whole entry G12D, looked up): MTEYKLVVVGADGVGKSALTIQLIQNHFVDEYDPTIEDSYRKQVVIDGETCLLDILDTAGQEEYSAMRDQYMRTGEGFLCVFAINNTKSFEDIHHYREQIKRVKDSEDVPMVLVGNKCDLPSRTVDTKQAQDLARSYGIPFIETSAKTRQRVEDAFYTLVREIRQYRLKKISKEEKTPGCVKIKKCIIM

| IC50 | SMILES |
| --- | --- |
| ≤ 50 nM | [2H]C([2H])(Oc1nc(N2CC3CCC2CN3)c2cnc(-c3cc(O)cc(Cl)c3C(F)(F)F)c(F)c2n1)C12CCCN1CCC2 (centres undefined) |
| > 250 nM | [2H]C([2H])(Oc1nc2c(c(N3CC4CCC(C3)N4)n1)CCN(c1cc(O)ccc1C(F)(F)F)C2)C12CCCN1CCC2 |
| > 50 nM | [2H]C([2H])(Oc1nc2c(c(N3CC4CCC(C3)N4)n1)CCN(c1cc(O)cc(Cl)c1C(F)(F)F)C2)C12CCCN1CCC2 |
| ≤ 50 nM | [2H]C([2H])(Oc1nc(N2CC3CCC(C2)N3)c2cnc(-c3cc(O)cc(Cl)c3C(F)(F)F)c(F)c2n1)C12CCCN1CCC2 |
